According to patent US11339161B2, “Triazolo pyridines as modulators of gamma-secretase” (Boehringer Ingelheim International GmbH, priority 2017, dated 2022):
pIC50: −log10 of the molar value. Read-outs that look alike come from different tables or passages of the source.

What was measured:
[1] = tested on: Aβ42 production; assay: Inhibition of Aβ42 production in H4 neuroglioma cells stably expressing human APP695 (MSD electrochemiluminescence); format: cell-based
Description: Cells were plated out to near confluency. The compounds to be tested were received as 10 mM stocks in 100% DMSO. A dilution series was initially generated in 100% DMSO and then diluted 200-fold in cell culture media such that the tested concentration range was 30 μM to 0.1 nM and the final DMSO concentration was 0.5%. The diluted compounds were incubated with the cells for 22 hours in an incubator at 37° C. and 5% CO2. Aβ42 levels were measured post-incubation from the supernatant of the cells using an Aβ42 specific electrochemiluminescence assay provided by Meso Scale Discovery (Catalog #L21CA-1). The measurement of Aβ42 levels were performed according to the manufacturer's protocol.

[2] = biological target: ABL1 (Homo sapiens, UniProt P00519); assay: Z'-LYTE SelectScreen biochemical kinase assay ABL1
Description: (§1) Thermo Fisher Scientific SelectScreen™ Biochemical Kinase Profiling Service Z′-LYTE™ Screening Protocol and Assay Conditions Assay Theory
(§2) The […] biochemical assay employs a fluorescence-based, coupled-enzyme format and is based on the differential sensitivity of phosphorylated and non-phosphorylated peptides to proteolytic cleavage. The peptide substrate is labeled with two fluorophores—one at each end—that make up a FRET pair. In the primary reaction, the kinase transfers the gamma-phosphate of ATP to a single tyrosine, serine or threonine residue in a synthetic FRET-peptide. In the secondary reaction, a site-specific protease recognizes and cleaves non-phosphorylated FRET-peptides. Phosphorylation of FRET-peptides suppresses cleavage by the Development Reagent. Cleavage disrupts FRET between the donor (i.e., coumarin) and acceptor (i.e., fluorescein) fluorophores on the FRET-peptide, whereas uncleaved, phosphorylated FRET-peptides maintain FRET. A ratiometric method, which calculates the ratio (Emission Ratio=Coumarin emission (445 nm)/Fluorescein emission (520 nm)) of donor emission to acceptor emission after excitation of the donor fluorophore at 400 nm, is used to quantitate reaction progress, as shown in the equation below. A significant benefit of this ratiometric method for quantitating reaction progress is the elimination of well-to-well variations in FRET-peptide concentration and signal intensities. As a result, the assay yields very high Z′-factor values (>0.7) at a low percent phosphorylation. Both cleaved and uncleaved FRET-peptides contribute to the fluorescence signals and therefore to the Emission Ratio. The extent of phosphorylation of the FRET-peptide can be calculated from the Emission Ratio. The Emission Ratio will remain low if the FRET-peptide is phosphorylated (i.e., no kinase inhibition) and will be high if the FRET-peptide is non-phosphorylated (i.e., kinase inhibition).
(§3) The Test Compounds are screened in 1% DMSO (final) in the well. For 10 point titrations, 3-fold serial dilutions are conducted from the starting concentration of the customer's choosing.
(§4) All Peptide/Kinase Mixtures are diluted to a 2× working concentration in the appropriate Kinase Buffer (see section Kinase Specific Assay Conditions for a complete description).
(§5) All ATP Solutions are diluted to a 4× working concentration in Kinase Buffer (50 mM HEPES pH 7.5, 0.01% BRIJ-35, 10 mM MgCl2, 1 mM EGTA). ATP Km apparent is previously determined using a Z″-LYTE assay.
(§6) The Development Reagent is diluted in Development Buffer (see section Kinase-Specific Assay Conditions—Direct and Cascade for a complete description).
(§7) Bar-coded Corning, low volume NBS, black 384-well plate (Corning Cat. #4514) • 1. 100 nL—100× Test Compound in 100% DMSO • 2. 2.4 μL—Kinase buffer • 3. 5 μL—2× Peptide/Kinase Mixture • 4. 2.5 μL—4×ATP Solution • 5. 30—second plate shake • 6. 60—minute Kinase Reaction incubation at room temperature • 7. 5 μL—Development Reagent Solution • 8. 30—second plate shake • 9. 60—minute Development Reaction incubation at room temperature • 10. Read on fluorescence plate reader and analyze the data Z′-LYTE Assay Controls
(§8) SelectScreen Kinase Profiling Service uses XLfit from IDBS. The dose response curve is curve fit to model number 205 (sigmoidal dose-response model).
(§9) The 2×ABL1/Tyr 02 mixture is prepared in 50 mM HEPES pH 7.5, 0.01% BRIJ-35, 10 mM MgCl2, 1 mM EGTA. The final 10 μL Kinase Reaction consists of 0.29-1.26 ng ABL1 and 2 μM Tyr 02 in 50 mM HEPES pH 7.5, 0.01% BRIJ-35, 10 mM MgCl2, 1 mM EGTA. After the 1 hour Kinase Reaction incubation, 5 μL of a 1:128 dilution of Development Reagent A is added.

[3] = biological target: FGFR2 (Homo sapiens, UniProt P21802); assay: Z'-LYTE SelectScreen biochemical kinase assay FGFR2
Description: as §1, §2, §3, §4, §5, §6, §7, §8
The 2×FGFR2/Tyr 04 mixture is prepared in 50 mM HEPES pH 7.5, 0.01% BRIJ-35, 10 mM MgCl2, 4 mM MnCl2, 1 mM EGTA, 2 mM DTT. The final 10 μL Kinase Reaction consists of 0.19-1.99 ng FGFR2 and 2 μM Tyr 04 in 50 mM HEPES pH 7.5, 0.01% BRIJ-35, 10 mM MgCl2, 2 mM MnCl2, 1 mM EGTA, 1 mM DTT. After the 1 hour Kinase Reaction incubation, 5 μL of a 1:64 dilution of Development Reagent B is added.

[4] = biological target: MAP4K4 (HGK) (Homo sapiens, UniProt O95819); assay: Z'-LYTE SelectScreen biochemical kinase assay MAP4K4 (HGK)
Description: as §1, §2, §3, §4, §5, §6, §7, §8
as §9, with “2×MAP4K4 (HGK)/Ser/Thr 07” for “2×ABL1/Tyr 02”, “0.36-1.82” for “0.29-1.26”, “MAP4K4 (HGK)” for “ABL1”, “Ser/Thr 07” for “Tyr 02”, “1:45000” for “1:128”

[5] = H4 neuroglioma cells expressing human APP695, 22 hours incubation, Table 4a
[6] = 10 μmolar compound concentration, ATP at Km app, read-out: ABL1 inhibition
[7] = read-out: % Inhibition mean ABL1
[8] = 10 μmolar compound concentration, ATP at Km app, read-out: FGFR2 inhibition
[9] = read-out: % Inhibition mean FGFR2
[10] = 10 μmolar compound concentration, ATP at Km app, read-out: MAP4K4 (HGK) inhibition
[11] = read-out: % Inhibition mean MAP4K4 (HGK)

Sequence of MAP4K4 (HGK) (O95819 whole entry): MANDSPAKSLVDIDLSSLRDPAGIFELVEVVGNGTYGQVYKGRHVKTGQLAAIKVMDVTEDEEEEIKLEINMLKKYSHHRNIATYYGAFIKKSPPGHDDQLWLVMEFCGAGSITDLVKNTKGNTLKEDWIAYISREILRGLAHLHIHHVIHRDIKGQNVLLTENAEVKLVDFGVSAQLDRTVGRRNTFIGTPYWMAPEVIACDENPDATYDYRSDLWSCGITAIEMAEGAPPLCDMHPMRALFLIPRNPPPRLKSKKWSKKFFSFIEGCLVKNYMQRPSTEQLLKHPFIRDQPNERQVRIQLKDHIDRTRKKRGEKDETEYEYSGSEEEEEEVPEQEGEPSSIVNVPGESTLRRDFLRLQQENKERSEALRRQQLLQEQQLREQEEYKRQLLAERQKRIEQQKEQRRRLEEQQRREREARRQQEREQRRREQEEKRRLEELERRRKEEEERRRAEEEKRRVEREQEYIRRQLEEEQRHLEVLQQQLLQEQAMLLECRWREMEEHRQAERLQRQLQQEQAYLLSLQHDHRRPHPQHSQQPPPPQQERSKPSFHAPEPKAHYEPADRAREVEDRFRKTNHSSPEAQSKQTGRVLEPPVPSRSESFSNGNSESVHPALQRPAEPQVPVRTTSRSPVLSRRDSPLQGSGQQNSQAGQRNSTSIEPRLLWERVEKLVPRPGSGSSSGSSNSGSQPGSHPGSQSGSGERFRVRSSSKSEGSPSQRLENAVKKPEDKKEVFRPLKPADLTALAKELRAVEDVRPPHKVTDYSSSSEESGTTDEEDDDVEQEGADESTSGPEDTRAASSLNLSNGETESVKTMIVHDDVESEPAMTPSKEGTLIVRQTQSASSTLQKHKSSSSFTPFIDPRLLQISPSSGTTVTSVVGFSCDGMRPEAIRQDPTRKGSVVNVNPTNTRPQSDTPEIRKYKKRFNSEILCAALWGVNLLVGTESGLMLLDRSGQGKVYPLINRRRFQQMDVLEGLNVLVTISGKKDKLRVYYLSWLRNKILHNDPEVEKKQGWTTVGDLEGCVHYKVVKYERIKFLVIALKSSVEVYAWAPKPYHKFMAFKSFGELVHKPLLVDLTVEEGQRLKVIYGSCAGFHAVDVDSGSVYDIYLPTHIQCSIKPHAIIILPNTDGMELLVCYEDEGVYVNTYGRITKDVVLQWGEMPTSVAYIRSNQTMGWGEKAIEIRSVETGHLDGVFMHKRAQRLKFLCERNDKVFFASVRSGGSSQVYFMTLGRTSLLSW
Sequence of ABL1 (P00519 whole entry): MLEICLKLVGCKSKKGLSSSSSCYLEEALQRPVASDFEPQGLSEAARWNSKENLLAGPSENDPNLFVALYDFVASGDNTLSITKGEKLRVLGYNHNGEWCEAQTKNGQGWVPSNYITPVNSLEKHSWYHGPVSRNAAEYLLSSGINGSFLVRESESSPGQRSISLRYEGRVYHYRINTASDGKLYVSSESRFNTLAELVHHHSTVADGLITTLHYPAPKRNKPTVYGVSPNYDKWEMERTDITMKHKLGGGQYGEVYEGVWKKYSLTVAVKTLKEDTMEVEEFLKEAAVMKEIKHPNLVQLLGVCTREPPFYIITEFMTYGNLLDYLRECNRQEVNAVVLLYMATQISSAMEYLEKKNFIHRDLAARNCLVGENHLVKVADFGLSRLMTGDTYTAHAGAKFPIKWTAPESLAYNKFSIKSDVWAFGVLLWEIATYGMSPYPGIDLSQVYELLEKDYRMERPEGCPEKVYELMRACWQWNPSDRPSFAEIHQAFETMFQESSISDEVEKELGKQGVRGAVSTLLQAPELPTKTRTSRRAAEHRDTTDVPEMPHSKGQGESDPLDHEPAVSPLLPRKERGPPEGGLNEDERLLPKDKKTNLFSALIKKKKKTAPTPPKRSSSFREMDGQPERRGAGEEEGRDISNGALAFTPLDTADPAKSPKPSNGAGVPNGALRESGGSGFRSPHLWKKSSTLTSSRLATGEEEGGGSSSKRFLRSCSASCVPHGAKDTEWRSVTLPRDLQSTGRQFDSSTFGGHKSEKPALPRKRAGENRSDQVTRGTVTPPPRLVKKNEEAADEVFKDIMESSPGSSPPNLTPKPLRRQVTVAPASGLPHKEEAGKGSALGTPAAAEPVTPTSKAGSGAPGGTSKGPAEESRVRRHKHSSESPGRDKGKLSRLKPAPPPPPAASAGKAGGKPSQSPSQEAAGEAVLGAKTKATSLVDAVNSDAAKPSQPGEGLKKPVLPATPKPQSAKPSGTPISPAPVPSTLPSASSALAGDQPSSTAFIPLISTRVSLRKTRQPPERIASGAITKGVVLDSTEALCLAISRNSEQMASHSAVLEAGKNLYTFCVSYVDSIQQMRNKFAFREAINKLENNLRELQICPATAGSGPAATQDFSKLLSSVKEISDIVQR
Sequence of FGFR2 (P21802 22-821): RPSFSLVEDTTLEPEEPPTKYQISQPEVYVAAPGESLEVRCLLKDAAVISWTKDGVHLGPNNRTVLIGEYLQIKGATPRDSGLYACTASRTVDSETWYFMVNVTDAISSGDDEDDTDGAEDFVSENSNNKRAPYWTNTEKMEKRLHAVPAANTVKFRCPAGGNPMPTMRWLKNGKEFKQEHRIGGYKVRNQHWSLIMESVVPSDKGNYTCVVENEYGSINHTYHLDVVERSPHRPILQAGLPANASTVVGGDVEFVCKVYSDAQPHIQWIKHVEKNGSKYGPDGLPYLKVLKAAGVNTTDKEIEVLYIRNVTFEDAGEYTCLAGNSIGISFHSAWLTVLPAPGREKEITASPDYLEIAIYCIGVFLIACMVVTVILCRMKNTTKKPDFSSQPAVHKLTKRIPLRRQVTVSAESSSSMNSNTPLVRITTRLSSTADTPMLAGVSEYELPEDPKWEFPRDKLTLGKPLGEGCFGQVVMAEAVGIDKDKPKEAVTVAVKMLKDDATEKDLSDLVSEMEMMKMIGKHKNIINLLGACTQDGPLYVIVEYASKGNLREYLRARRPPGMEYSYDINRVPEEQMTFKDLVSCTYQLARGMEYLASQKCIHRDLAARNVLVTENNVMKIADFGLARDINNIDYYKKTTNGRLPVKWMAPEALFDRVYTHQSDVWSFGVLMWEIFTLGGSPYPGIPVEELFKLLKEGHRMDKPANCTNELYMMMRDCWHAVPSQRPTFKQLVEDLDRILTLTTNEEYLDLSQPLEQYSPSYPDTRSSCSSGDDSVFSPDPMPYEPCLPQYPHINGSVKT

Row | Compound | pIC50 [1, 5] | inhibition at 10 µM [2, 6] | inhibition at 10 µM [2, 7] | inhibition at 10 µM [3, 8] | inhibition at 10 µM [3, 9] | inhibition at 10 µM [4, 10] | inhibition at 10 µM [4, 11] | pIC50 ([1]; Homo sapiens, H4 neuroglioma cells, same assay as table 4a, prior art compounds, Table 4b) | inhibition at 10 µM ([2]; read-out: % Inhibition mean) | inhibition at 10 µM ([3]; read-out: % Inhibition mean) | inhibition at 10 µM ([4]; read-out: % Inhibition mean) | modulation of γ-secretase (in words) ([1]; tables 4a/4b)
1 | CCn1ncc2c1CCC(Nc1nc3c(-c4ccc(OC)nc4)cccn3n1)C2 (stereo not shown) [Example 71, (1-Ethyl-4,5,6,7-tetrahydro-1H-indazol-5-yl)-[8-(6-methoxy-pyridin-3-yl)-[1,2,4]triazolo[1,5-a]pyridine-2-yl]-amine] | 7.05 | < 40% | 24% | < 40% | 27% | < 40% | 16% | – | – | – | – | –
2 | CCCCCn1ncc2c1CCC(Nc1nc3c(-c4ccc(F)cc4C)cccn3n1)C2 (stereo not shown) [Example 47, [8-(4-fluoro-2-methyl-phenyl)-[1,2,4]triazolo[1,5-a]pyridine-2-yl]-(1-pentyl-4,5,6,7-tetrahydro-1H-indazol-5-yl)-amine] | < 4.52 | < 40% | 3% | < 40% | 21% | < 40% | 32% | – | – | – | – | –
3 | Cc1cc(F)ccc1-c1cccn2nc(NC3CCc4c(cnn4CC(C)C)C3)nc12 (stereo not shown) [Example 45, [8-(4-fluoro-2-methyl-phenyl)-[1,2,4]triazolo[1,5-a]pyridine-2-yl]-(1-isobutyl-4,5,6,7-tetrahydro-1H-indazol-5-yl)-amine] | 5.47 | < 40% | 24% | < 40% | 16% | < 40% | 2% | – | – | – | – | –
4 | CCCCn1ncc2c1CCC(Nc1nc3c(-c4ccc(F)cc4C)cccn3n1)C2 (stereo not shown) [Example 46, [8-(4-fluoro-2-methyl-phenyl)-[1,2,4]triazolo[1,5-a]pyridine-2-yl]-(1-butyl-4,5,6,7-tetrahydro-1H-indazol-5-yl)-amine] | 5.56 | < 40% | 10% | < 40% | 26% | 40 to 80% | 48% | – | – | – | – | –
5 | CCn1ncc2c1CCC(Nc1nc3c(-c4ccc(F)cc4)cccn3n1)C2 (stereo not shown) [Example 55, (1-Ethyl-4,5,6,7-tetrahydro-1H-indazol-5-yl)-[8-(4-fluoro-phenyl)-[1,2,4]triazolo[1,5-a]pyridine-2-yl]-amine] | 6.74 | < 40% | 21% | < 40% | 13% | 40 to 80% | 51% | – | – | – | – | –
6 | CCn1ncc2c1CCC(Nc1nc3c(-c4cncc(OC)c4)cccn3n1)C2 (stereo not shown) [Example 70, (1-Ethyl-4,5,6,7-tetrahydro-1H-indazol-5-yl)-[8-(5-methoxy-pyridin-3-yl)-[1,2,4]triazolo[1,5-a]pyridine-2-yl]-amine] | 6.70 | < 40% | 15% | < 40% | 12% | 40 to 80% | 56% | – | – | – | – | –
7 | CC1(C)NC(=O)c2ccc(Nc3nc4c(-c5cccc(F)c5)cccn4n3)cc21 [Cpd. 302 in WO09155551, reference compound] | – | > 80% | – | > 80% | – | > 80% | – | < 5.00 | 104% | 98% | 99% | do not show any modulation

Second part, led by results:

Row | pIC50 [1, 5] | inhibition at 10 µM [2, 6] | inhibition at 10 µM [2, 7] | inhibition at 10 µM [3, 8] | inhibition at 10 µM [3, 9] | inhibition at 10 µM [4, 10] | inhibition at 10 µM [4, 11] | pIC50 ([1]; Homo sapiens, H4 neuroglioma cells, same assay as table 4a, prior art compounds, Table 4b) | inhibition at 10 µM ([2]; read-out: % Inhibition mean) | inhibition at 10 µM ([3]; read-out: % Inhibition mean) | inhibition at 10 µM ([4]; read-out: % Inhibition mean) | Compound | modulation of γ-secretase (in words) ([1]; tables 4a/4b)
8 | 6.12 | < 40% | 13% | < 40% | 22% | 40 to 80% | 50% | – | – | – | – | CCn1nc(Cl)c2c1CCC(Nc1nc3c(-c4ccc(F)cc4C)cccn3n1)C2 (stereo not shown) [Example 48, (3-Chloro-1-ethyl-4,5,6,7-tetrahydro-1H-indazol-5-yl)-[8-(4-fluoro-2-methyl-phenyl)-[1,2,4]triazolo[1,5-a]pyridine-2-yl]-amine] | –
9 | 6.42 | < 40% | 1% | < 40% | 14% | < 40% | 37% | – | – | – | – | Cc1cc(F)ccc1-c1cccn2nc(NC3CCc4c(cnn4C)C3)nc12 (stereo not shown) [Example 10, [8-(4-fluoro-2-methyl-phenyl)-[1,2,4]triazolo[1,5-a]pyridine-2-yl]-(1-methyl-4,5,6,7-tetrahydro-1H-indazol-5-yl)-amine] | –
10 | 7.40 | < 40% | 19% | < 40% | 11% | 40 to 80% | 57% | – | – | – | – | CCn1ncc2c1CCC(Nc1nc3c(-c4cccc(Cl)c4)cccn3n1)C2 (stereo not shown) [Example 59, [8-(3-Chloro-phenyl)-[1,2,4]triazolo[1,5-a]pyridine-2-yl]-(1-ethyl-4,5,6,7-tetrahydro-1H-indazol-5-yl)-amine] | –
11 | < 4.52 | < 40% | 9% | < 40% | 17% | 40 to 80% | 45% | – | – | – | – | Cc1cc(F)ccc1-c1cccn2nc(NC3CCc4cnn(C)c4C3)nc12 (stereo not shown) [Example 40, [8-(4-Fluoro-2-methyl-phenyl)-[1,2,4]triazolo[1,5-a]pyridine-2-yl]-(1-methyl-4,5,6,7-tetrahydro-1H-indazol-6-yl)-amine] | –
12 | 5.90 | 40 to 80% | 63% | 40 to 80% | 46% | < 40% | 6% | – | – | – | – | Cc1cc(F)ccc1-c1cccn2nc(Nc3ccc4c(cnn4C)c3)nc12 [Example 9, [8-(4-fluoro-2-methyl-phenyl)-[1,2,4]triazolo[1,5-a]pyridine-2-yl]-(1-methyl-1H-indazol-5-yl)-amine] | –
